Results: patent US5663335A, “Immunosuppressive compounds and methods” (priority 1996, dated 1997)
“Also recorded” adds a separate entry of the source. Where a name gives a salt, the structure may show the parent alone.

Tests used:
[1] = test system: rat heart allograft rejection (Brown Norway donor, Lewis recipient); test: Heterotopic cardiac allograft survival (heart transplantation model); type: in vivo; settings: for mean survival time: intraperitoneal, daily, day -1 to day 14; for mean survival time compared with underivatized triptolide: equimolar doses: YM-273 0.40 mg/kg, YM-274 0.33 mg/kg, T10 0.25 mg/kg, i.p.
Text: Treatment of transplantation rejection, in accordance with the invention, is illustrated for rejection of an allograft by the heart transplantation model used in Example 14. The method involves a well-characterized rat model system (Oho and Lindsey, 1969) in which a transplanted heart is attached to the abdominal great vessels of an allogeneic recipient animal, and the viability of the transplanted heart is gauged by the heart's ability to beat in the recipient animal.
In one study, the animals were administered by intraperitoneal injections, from one day preceding to 14 days following heart transplantation, either control solution (5% ethanol, 10 ml/kg), triptolide (designated as T10), or with two concentrations each of YM-273 and YM-274. There were three animals in each group, except for the control group in which five animals were used.
Heterotopic whole heart transplantation was performed according to the standard method (Oho and Lindsey, 1969). The donors (Brown Norway rats, 200-255 g, Charles River, Wilmington, Mass.) and recipients (Adult male Lewis rats, 225-275 g, Charles River) were anesthetized with sodium pentobarbital (40 mg/kg). Following adequate donor anticoagulation using heparin, the heart graft was removed and stored at 4° C. in PhysioSol Irrigation Solution (Abbott Laboratories, N. Chicago, Ill.). The ascending aorta and pulmonary artery were transected, and the vena cava and pulmonary veins were ligated. […] The cold ischemic time of all the cardiac grafts was less than 45 minutes. Graft heartbeat was monitored by abdominal palpation. The period of functional graft survival was measured as the number of days during which cardiac graft contractions could be detected by abdominal palpation. Results were confirmed by direct visualization at laparotomy.
Heart transplant recipient animals prepared as described above (3-5 animals/group) were treated with (i) control solution (5% ethanol, 10 ml/kg), (ii) YM-273 at 0.10 mg/kg and 0.40 mg/kg (FIG. 5A), (iii) YM-274 at 0.084 and 0.33 mg/kg (FIG. 5B), and (iv) and T10 (triptolide) 0.25 mg/kg (FIG. 6). In addition to showing the results for T10, FIG. 6 repeats the results from FIGS. 5A-5B for YM-273 and YM-274 at 0.40 and 0.33 mg/kg, respectively, such that their concentrations were equimolar relative to T10. All compounds were administered intraperitoneally. Treatment started on the day prior to surgery and continuing daily until postoperative day 14, or until the end of allograft survival.

[2] = Stability in blood serum (TLC); type: in vitro ADME; settings: rat serum, 37° C; for stability in serum, 3 to 5 minutes: first 3 to 5 minutes
Method: The stability of triptolide succinate in blood serum was determined as detailed in Example 10B. In this study, a solution of triptolide succinate (YM-262, free acid) in DMSO was mixed with rat serum and incubated at 37° C. The mixture was assayed periodically by thin layer chromatography (TLC) to follow the hydrolysis of the triptolide succinate over time.
A solution of triptolide succinate (free acid; YM-262) in DMSO was made at a concentration of 25 mg/ml, and 0.1 ml of this solution was mixed with 0.5 ml of rat serum. The mixture was incubated at 37° C. Aliquots of the mixture were taken at 1, 3, 5, 15, 45 minutes and 18 hours and analyzed by thin layer chromatography (TLC). The TLC plates were developed in 1:5 CH2 CI2 /Et2 O. After development, the plates were treated with iodine vapor and examined under a UV lamp. Triptolide and triptolide succinate were used as reference compounds (Rf =0.60), and 0.45, respectively).

[3] = Cytotoxicity by MTT assay, reported with the IL-1 assay (Table I); type: cell-based; settings: mouse, thymocytes, cytotoxic when toxicity greater than 25%
Method: Potential cytotoxicity of the test samples was assessed by the measurement of their effect on the reduction of MTT (3-[4,5-Dimethylthiazole-2-yl]-2,5-diphenyltetrazolium bromide) by cultured cells. MTT, a yellow-colored compound, is reduced by mitochondrial enzymes to form the purple crystalline reduction product formazane, providing an index of cellular respiration on viable cells as well as a sensitive assay for cytotoxicity (Mossmann, 1983).
The cytotoxicity was assessed in cultured human PBMC and mouse thymocytes. A stock solution of MTT (Sigma) at 5 mg/ml in phosphate buffered saline, pH 7.4, was prepared and stored in the dark at 4° C. PBMCs or thymocytes were cultured with various concentrations of test samples in flatbottom 96-well tissue culture plates (Costar) under the same conditions as those described above, but the stimulants (X-35 or IL-1+PHA) were replaced by appropriate medium. Untreated cells with medium alone and without the test samples were used as controls. After incubation for 21 hours, 25 μl of MTT solution was added to each well. After an additional three hours of incubation, the experiment was terminated by addition of a solution of 10% sodium dodecyl sulfate in 0.01N HCl. Following overnight incubation at 37° C. to solubilize the formazane crystals, optical density was determined at 570-650 nm in microplate reader. […]

[4] = Stability in water (D2O solution, 1H NMR); type: physicochemical; settings: 3 mg/ml, room temperature, Succinate Sodium Salt
Method: Sodium triptolide succinate, designated YM-274, was dissolved in D2 O, and the aqueous solution was stored at room temperature.
A solution of sodium triptolide succinate (YM-274) in D2 O was prepared at a concentration of 3 mg/ml and stored at room temperature. The solution was analyzed by ^1 H NMR at intervals of 1, 3, 5, 15, 45, 90, 180 minutes; 1, 7, 14 days; and 1, 2, 3, and 5 months.

Compound: CC(C)C12OC1C1OC13C1(C)CCC4=C(COC4=O)C1CC1OC13C2OC(=O)CCC(=O)O (stereo not drawn) [YM-273, Triptolide Succinate Tris Salt]
- mean survival time ([1]; 0.1 mg/kg): 7 days
- mean survival time ([1]; 0.4 mg/kg): 24 days
- mean survival time compared with underivatized triptolide [1]: somewhat better

Compound: CC(C)C12OC1C1OC13C1(C)CCC4=C(COC4=O)C1CC1OC13C2OC(=O)CCC(=O)O (stereo not drawn) [YM-262, Triptolide Succinate]
- time for hydrolysis of the triptolide ester to free triptolide in serum [2]: less than an hour
- stability in serum, 15 minutes ([2]; 15 minutes): the triptolide succinate spot was gone
- stability in serum, 3 to 5 minutes [2]: most of the triptolide succinate remained
- stability in serum, 3 to 5 minutes ([2]; listed as triptolide succinate): only triptolide succinate was detected by TLC
- MCC [3]: > 12.5 µg/mL

Compound: CC(C)C12OC1C1OC13C1(C)CCC4=C(COC4=O)C1CC1OC13C2OC(=O)CCC(=O)O (stereo not drawn) [YM-274, Triptolide Succinate Sodium Salt]
- mean survival time ([1]; 0.0837 mg/kg): 10 days
- mean survival time compared with underivatized triptolide ([1]; Succinate Sodium Salt): substantially better
- stability in D2O, five months ([4]; five months): Some decomposition was apparent after 5 months; also recorded: some decomposition was observed
- stability in D2O, up to three months ([4]; three months): no appreciable change in the NMR spectrum during the first three months; also recorded: unchanged after three months in solution
